Measured values reported in article PMC3998834 (Biopolymers, 2014).

Test system: BT-474 cells
Assay: Antiproliferative assay
Assay type: cell-based
Details: Homo sapiens, BT-474, 72 h, read-out: Antiproliferative activity IC50, BT-474; SD

IC50: 25 ± 4 nM
Structure (SMILES): CS(=O)(=O)CCNCc1ccc(-c2ccc3ncnc(Nc4ccc(OCc5cccc(F)c5)c(Cl)c4)c3c2)o1 [lapatinib]
